Assay results: US20260062422A1 (Halda Therapeutics OpCo, Inc., priority 2022, published 2026)

Experiments:
[1] = tested on: T-Rex 293 cell line SC3 cells lacking increased expression of androgen receptor protein; test: Cellular growth inhibition, T-Rex 293 SC3 cells without doxycycline, CellTiter-Glo; type: cell-based; conditions: T-Rex 293 SC3 cells not exposed to doxycycline, CellTiter-Glo 2.0
Procedure, shortened: (§1)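 With DMSO (0.5%) vehicle as negative control, compounds treated SC3 cells for 72 h in medium containing charcoal-dextran FBS ± doxycycline. This T-Rex 293 clone expresses transfected wild-type AR on induction. Readout: CellTiter-Glo 2.0; GI50 by nonlinear regression.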

[2] = tested on: VCaP cells; test: Cellular growth inhibition assay for VCaP cells, CellTiter-Glo; type: cell-based, human; conditions: 72 hours treatment, CellTiter-Glo 2.0
Procedure, shortened: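 GI50 values come from four-parameter curve fits of luminescence data normalized to a zero baseline. Compound, in medium with 0.5% DMSO, was added one day after plating and left for 72 h before CellTiter-Glo 2.0 addition.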

[3] = tested on: T-Rex 293 cell line SC3 cells having increased expression of androgen receptor protein due to exposure to doxycycline; test: Cellular growth inhibition, T-Rex 293 SC3 cells with doxycycline (androgen receptor induced), CellTiter-Glo; type: cell-based; conditions: T-Rex 293 SC3 cells with 10 ng/mL doxycycline (increased androgen receptor expression)
Procedure, shortened: as §1

[4] = tested on: T47D cells; test: Cellular growth inhibition assay for T47D cells, CellTiter-Glo; type: cell-based, human; conditions: 72 hours treatment, CellTiter-Glo 2.0 cell viability
Procedure, shortened: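 Luminescence from CellTiter-Glo 2.0 after 72 h of compound exposure gives the viability signal. Cells grew in insulin-supplemented (0.2 units/mL) DMEM with 10% FBS and were treated one day after seeding at 0.5% DMSO. GI50 values come from four-parameter nonlinear regression.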

Cc1sc2c(c1C)C(c1ccc(CC[C@H]3C[C@]4(CCCN(c5ncc(C(=O)N[C@H]6C(C)(C)[C@H](Oc7ccc(C#N)c(Cl)c7)C6(C)C)cn5)C4)C3)cc1)=N[C@@H](C)c1nnc(C)n1-2 [Compound I-369]
GI50 ([1]; 72 h): > 3000 nM
GI50 ([2]; Homo sapiens, VCaP, 72 h): < 500 nM
GI50 ([3]; 72 h): < 500 nM
GI50 ([4]; Homo sapiens, T47D, 72 h): > 3000 nM

Cc1sc2c(c1C)C(c1ccc(CC(=O)N3CCC(c4ncc(C(=O)N[C@H]5C(C)(C)[C@H](Oc6ccc(C#N)c(Cl)c6)C5(C)C)cn4)CC3)cc1)=N[C@H](Cc1ncco1)c1nnc(C)n1-2 [Compound I-370]
GI50 ([1]; 72 h): > 3000 nM
GI50 ([2]; Homo sapiens, VCaP, 72 h): < 500 nM
GI50 ([3]; 72 h): < 500 nM
GI50 ([4]; Homo sapiens, T47D, 72 h): 500 to 1500 nM

Cc1sc2c(c1C)C(c1ccc(CN(C)C(=O)[C@@H]3CC[C@H](c4ncc(C(=O)N[C@H]5C(C)(C)[C@H](Oc6ccc(C#N)c(Cl)c6)C5(C)C)cn4)C3)cc1)=N[C@@H](Cc1ncco1)c1nnc(C)n1-2 [Compound I-371]
GI50 ([1]; 72 h): > 3000 nM
GI50 ([2]; Homo sapiens, VCaP, 72 h): < 500 nM
GI50 ([3]; 72 h): < 500 nM
GI50 ([4]; Homo sapiens, T47D, 72 h): 500 to 1500 nM

Cc1sc2c(c1C)C(c1ccc(CN(C)C(=O)[C@@H]3CC[C@@H](c4ncc(C(=O)N[C@H]5C(C)(C)[C@H](Oc6ccc(C#N)c(Cl)c6)C5(C)C)cn4)C3)cc1)=N[C@@H](Cc1ncco1)c1nnc(C)n1-2 [Compound I-372]
GI50 ([1]; 72 h): > 3000 nM
GI50 ([2]; Homo sapiens, VCaP, 72 h): < 500 nM
GI50 ([3]; 72 h): < 500 nM
GI50 ([4]; Homo sapiens, T47D, 72 h): 500 to 1500 nM

Cc1sc2c(c1C)C(c1ccc(N(C)CC(=O)NCc3ncc(C(=O)N[C@H]4C(C)(C)[C@H](Oc5ccc(C#N)c(Cl)c5)C4(C)C)cn3)cc1)=N[C@@H](Cc1ncco1)c1nnc(C)n1-2 [Compound I-373]
GI50 ([1]; 72 h): > 3000 nM
GI50 ([2]; Homo sapiens, VCaP, 72 h): > 3000 nM
GI50 ([3]; 72 h): > 3000 nM
GI50 ([4]; Homo sapiens, T47D, 72 h): > 3000 nM

Cc1sc2c(c1C)C(c1ccc(N(C)CC(=O)NCc3ncc(C(=O)N[C@H]4C(C)(C)[C@H](Oc5ccc(C#N)c(Cl)c5)C4(C)C)cn3)cc1)=N[C@H](Cc1ncco1)c1nnc(C)n1-2 [Compound I-374]
GI50 ([1]; 72 h): > 3000 nM
GI50 ([2]; Homo sapiens, VCaP, 72 h): < 500 nM
GI50 ([3]; 72 h): > 3000 nM
GI50 ([4]; Homo sapiens, T47D, 72 h): 500 to 1500 nM

Cc1sc2c(c1C)C(c1ccc(CCCOC3CCN(c4ncc(C(=O)N[C@H]5C(C)(C)[C@H](Oc6ccc(C#N)c(Cl)c6)C5(C)C)cn4)CC3)cc1)=C[C@H](Cc1ccncn1)c1nnc(C)n1-2 [Compound I-375]
GI50 ([1]; 72 h): < 500 nM
GI50 ([2]; Homo sapiens, VCaP, 72 h): < 500 nM
GI50 ([3]; 72 h): < 500 nM
GI50 ([4]; Homo sapiens, T47D, 72 h): < 500 nM

Cc1sc2c(c1C)C(c1ccc(CCCOC3CCN(c4ncc(C(=O)N[C@H]5C(C)(C)[C@H](Oc6ccc(C#N)c(Cl)c6)C5(C)C)cn4)CC3)cc1)=C[C@H](Cc1ccncn1)c1nnc(C)n1-2 [Compound I-376]
GI50 ([1]; 72 hours): < 500 nM
GI50 [2]: < 500 nM
GI50 ([3]; 72 hours): < 500 nM
GI50 [4]: < 500 nM

Cc1sc2c(c1C)C(c1ccc(C3(N(C)CC4CCN(c5ncc(C(=O)N[C@H]6C(C)(C)[C@H](Oc7ccc(C#N)c(Cl)c7)C6(C)C)cn5)CC4)COC3)cc1)=N[C@@H](C)c1nnc(C)n1-2 [Compound I-377]
GI50 ([1]; 72 h): > 3000 nM
GI50 ([2]; Homo sapiens, VCaP, 72 h): > 3000 nM
GI50 ([3]; 72 h): > 3000 nM
GI50 ([4]; Homo sapiens, T47D, 72 h): > 3000 nM

Cc1sc2c(c1C)C(c1ccc(C#C[C@H]3C[C@@]4(CCCN(c5ncc(C(=O)N[C@H]6C(C)(C)[C@H](Oc7ccc(C#N)c(Cl)c7)C6(C)C)cn5)C4)C3)cc1)=N[C@@H](C)c1nnc(C)n1-2 [Compound I-378]
GI50 ([1]; 72 h): > 3000 nM
GI50 ([2]; Homo sapiens, VCaP, 72 h): < 500 nM
GI50 ([3]; 72 h): < 500 nM
GI50 ([4]; Homo sapiens, T47D, 72 h): > 3000 nM

Cc1sc2c(c1C)C(c1ccc(C#C[C@H]3C[C@@]4(CCCN(c5ncc(C(=O)N[C@H]6C(C)(C)[C@H](Oc7ccc(C#N)c(Cl)c7)C6(C)C)cn5)C4)C3)cc1)=N[C@@H](C)c1nnc(C)n1-2 [Compound I-379]
GI50 ([1]; 72 hours): > 3000 nM
GI50 [2]: < 500 nM
GI50 ([3]; 72 hours): < 500 nM
GI50 [4]: > 3000 nM

Cc1sc2c(c1C)C(c1ccc(CC3CC4(CCCN(c5ncc(C(=O)N[C@H]6C(C)(C)[C@H](Oc7ccc(C#N)c(Cl)c7)C6(C)C)cn5)C4)C3)cc1)=N[C@@H](C)c1nnc(C)n1-2 [Compound I-380]
GI50 ([1]; 72 h): > 3000 nM
GI50 ([2]; Homo sapiens, VCaP, 72 h): < 500 nM
GI50 ([3]; 72 h): < 500 nM
GI50 ([4]; Homo sapiens, T47D, 72 h): > 3000 nM

Cc1sc2c(c1C)C(c1ccc(C(=O)N3CCC(C(=O)c4ncc(C(=O)N[C@H]5C(C)(C)[C@H](Oc6ccc(C#N)c(Cl)c6)C5(C)C)cn4)CC3)cc1)=N[C@@H](Cc1ncco1)c1nnc(C)n1-2 [Compound I-381]
GI50 ([1]; 72 h): > 3000 nM
GI50 ([2]; Homo sapiens, VCaP, 72 h): > 3000 nM
GI50 ([3]; 72 hours): > 3000 nM
GI50 ([4]; Homo sapiens, T47D, 72 h): > 3000 nM

Cc1sc2c(c1C)C(c1ccc(C(=O)N3CCC(C(=O)c4ncc(C(=O)N[C@H]5C(C)(C)[C@H](Oc6ccc(C#N)c(Cl)c6)C5(C)C)cn4)CC3)cc1)=N[C@@H](Cc1ncco1)c1nnc(C)n1-2 [Compound I-382]
GI50 ([1]; 72 hours): > 3000 nM
GI50 [2]: > 3000 nM
GI50 ([3]; 72 hours): < 500 nM
GI50 [4]: > 3000 nM

Cc1sc2c(c1C)C(c1ccc([C@@H]3CCN(C(=O)[C@@H]4CCCN(c5ncc(C(=O)N[C@H]6C(C)(C)[C@H](Oc7ccc(C#N)c(Cl)c7)C6(C)C)cn5)C4)C3)cc1)=N[C@@H](Cc1ncco1)c1nnc(C)n1-2 [Compound I-383]
GI50 ([1]; 72 h): > 3000 nM
GI50 ([2]; Homo sapiens, VCaP, 72 h): > 3000 nM
GI50 ([3]; 72 h): > 3000 nM
GI50 ([4]; Homo sapiens, T47D, 72 h): > 3000 nM

Cc1sc2c(c1C)C(c1ccc([C@H]3CCN(C(=O)[C@@H]4CCCN(c5ncc(C(=O)N[C@H]6C(C)(C)[C@H](Oc7ccc(C#N)c(Cl)c7)C6(C)C)cn5)C4)C3)cc1)=N[C@@H](Cc1ncco1)c1nnc(C)n1-2 [Compound I-384]
GI50 ([1]; 72 h): < 500 nM
GI50 ([2]; Homo sapiens, VCaP, 72 h): < 500 nM
GI50 ([3]; 72 h): < 500 nM
GI50 ([4]; Homo sapiens, T47D, 72 h): < 500 nM

Cc1sc2c(c1C)C(c1ccc(CN3CC(=O)N4CC(c5ncc(C(=O)N[C@H]6C(C)(C)[C@H](Oc7ccc(C#N)c(Cl)c7)C6(C)C)cn5)C[C@H]4C3=O)cc1)=N[C@@H](Cc1ncco1)c1nnc(C)n1-2 (some centres unmarked) [Compound I-385]
GI50 ([1]; 72 h): > 3000 nM
GI50 ([2]; Homo sapiens, VCaP, 72 h): 1500 to 3000 nM
GI50 ([3]; 72 h): > 3000 nM
GI50 ([4]; Homo sapiens, T47D, 72 h): > 3000 nM

Cc1sc2c(c1C)C(c1ccc([C@@H]3CCN(C(=O)[C@H]4CCCN(c5ncc(C(=O)N[C@H]6C(C)(C)[C@H](Oc7ccc(C#N)c(Cl)c7)C6(C)C)cn5)C4)C3)cc1)=N[C@@H](Cc1ncco1)c1nnc(C)n1-2 [Compound I-386]
GI50 ([1]; 72 h): > 3000 nM
GI50 ([2]; Homo sapiens, VCaP, 72 h): > 3000 nM
GI50 ([3]; 72 h): > 3000 nM
GI50 ([4]; Homo sapiens, T47D, 72 h): 500 to 1500 nM

Cc1sc2c(c1C)C(c1ccc([C@H]3CCN(C(=O)[C@H]4CCCN(c5ncc(C(=O)N[C@H]6C(C)(C)[C@H](Oc7ccc(C#N)c(Cl)c7)C6(C)C)cn5)C4)C3)cc1)=N[C@@H](Cc1ncco1)c1nnc(C)n1-2 [Compound I-387]
GI50 ([1]; 72 h): 500 to 1500 nM
GI50 ([2]; Homo sapiens, VCaP, 72 h): < 500 nM
GI50 ([3]; 72 h): < 500 nM
GI50 ([4]; Homo sapiens, T47D, 72 h): < 500 nM

Cc1sc2c(c1C)C(c1ccc(N3CC4(C3)CC3(CCN(c5ncc(C(=O)N[C@H]6C(C)(C)[C@H](Oc7ccc(C#N)c(Cl)c7)C6(C)C)cn5)CC3)C4)cc1)=N[C@@H](Cc1ncco1)c1nnc(C)n1-2 [Compound I-388]
GI50 ([1]; 72 h): > 3000 nM
GI50 ([2]; Homo sapiens, VCaP, 72 h): < 500 nM
GI50 ([3]; 72 h): < 500 nM
GI50 ([4]; Homo sapiens, T47D, 72 h): < 500 nM

Cc1sc2c(c1C)C(c1ccc(-c3cc(OC4CCN(c5ncc(C(=O)N[C@H]6C(C)(C)[C@H](Oc7ccc(C#N)c(Cl)c7)C6(C)C)cn5)CC4)ns3)cc1)=N[C@@H](Cc1ncco1)c1nnc(C)n1-2 [Compound I-389]
GI50 ([1]; 72 h): > 3000 nM
GI50 ([2]; Homo sapiens, VCaP, 72 h): 500 to 1500 nM
GI50 ([3]; 72 h): < 500 nM
GI50 ([4]; Homo sapiens, T47D, 72 h): < 500 nM

Cc1sc2c(c1C)C(c1ccc(-c3scnc3OC3CCN(c4ncc(C(=O)N[C@H]5C(C)(C)[C@H](Oc6ccc(C#N)c(Cl)c6)C5(C)C)cn4)CC3)cc1)=N[C@@H](Cc1ncco1)c1nnc(C)n1-2 [Compound I-390]
GI50 ([1]; 72 h): > 3000 nM
GI50 ([2]; Homo sapiens, VCaP, 72 h): < 500 nM
GI50 ([3]; 72 h): < 500 nM
GI50 ([4]; Homo sapiens, T47D, 72 h): > 3000 nM

Cc1sc2c(c1C)C(c1ccc(OC3CC4(CCN(c5ncc(C(=O)N[C@H]6C(C)(C)[C@H](Oc7ccc(C#N)c(Cl)c7)C6(C)C)cn5)CC4)C3)cc1)=N[C@@H](C)c1nnc(C)n1-2 [Compound I-391]
GI50 ([1]; 72 h): > 3000 nM
GI50 ([2]; Homo sapiens, VCaP, 72 h): 1500 to 3000 nM
GI50 ([3]; 72 h): < 500 nM
GI50 ([4]; Homo sapiens, T47D, 72 h): 500 to 1500 nM
